According to ChEMBL document CHEMBL1201862, “PubChem BioAssay data set” (2004):
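Grown in 96-well plates, cells were treated for 48 hours with each compound at five concentrations. Insufficient inhibition: endpoint recorded as highest concentration tested. At the GI50, growth is halved.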 Active and inactive are the calls of the source. Rule as the data show it: active = GI50 up to about 1.1 µM and inactive = higher.

Experiments:
Experiment in all cases: NCI-60 cell line screen, 48 h
786-0 = tested on: 786-0
A498 = tested on: A498
A549 = tested on: A549
DLD-1 = tested on: DLD-1
DU-145 = tested on: DU-145
HL-60 = tested on: HL-60
HT-29 = tested on: HT-29
Hs-578T = tested on: Hs-578T
LOX IMVI = tested on: LOX IMVI
MDA-MB-435 = tested on: MDA-MB-435
MOLT-4 = tested on: MOLT-4
NCI-H23 = tested on: NCI-H23
OVCAR-3 = tested on: OVCAR-3
PC-3 = tested on: PC-3
SF-539 = tested on: SF-539
SK-MEL-2 = tested on: SK-MEL-2
TK-10 = tested on: TK-10
UACC-62 = tested on: UACC-62
UO-31 = tested on: UO-31
SNB-75 = tested on: SNB-75

Row | Compound | GI50 (786-0) | GI50 (A498) | GI50 (A549) | GI50 (DLD-1) | GI50 (DU-145) | GI50 (HL-60) | GI50 (HT-29) | GI50 (Hs-578T) | GI50 (LOX IMVI) | GI50 (MDA-MB-435) | GI50 (MOLT-4) | GI50 (NCI-H23) | GI50 (OVCAR-3) | GI50 (PC-3) | GI50 (SF-539) | GI50 (SK-MEL-2) | GI50 (TK-10) | GI50 (UACC-62) | GI50 (UO-31) | GI50 (SNB-75)
1 | O=C(CSc1ncnc2[nH]cnc12)c1ccccc1 | > 100 µM (inactive) | > 100 µM (inactive) | > 100 µM (inactive) | > 100 µM (inactive) | > 100 µM (inactive) | > 100 µM (inactive) | > 100 µM (inactive) | > 100 µM (inactive) | 79.4 µM (inactive) | > 100 µM (inactive) | > 65.6 µM (inactive) | > 100 µM (inactive) | > 100 µM (inactive) | > 100 µM (inactive) | > 100 µM (inactive) | > 43.2 µM (inactive) | > 66.7 µM (inactive) | > 100 µM (inactive) | > 95.7 µM (inactive) | 
2 | Nc1ccn(CCOC(=O)c2ccccc2)c(=O)n1 | > 100 µM (inactive) | > 100 µM (inactive) | > 100 µM (inactive) | > 100 µM (inactive) |  | > 100 µM (inactive) | > 100 µM (inactive) |  | > 100 µM (inactive) |  |  |  | > 100 µM (inactive) |  | > 100 µM (inactive) | > 100 µM (inactive) | > 100 µM (inactive) | > 100 µM (inactive) | > 100 µM (inactive) | > 100 µM (inactive)
3 | CCCCOCc1cc(CN2CCN(C)CC2)c(O)c2ncccc12 | 14.6 µM (inactive) | 24.8 µM (inactive) | 23.6 µM (inactive) | 8.05 µM (inactive) |  | 2.13 µM (inactive) | 31.6 µM (inactive) |  | 22.1 µM (inactive) |  | 4.79 µM (inactive) | 14.5 µM (inactive) | 7.59 µM (inactive) |  | 19.4 µM (inactive) | 25.3 µM (inactive) | > 100 µM (inactive) | 13.9 µM (inactive) | 9.66 µM (inactive) | 52.7 µM (inactive)
4 | N#C/C(=C\c1ccccc1O)C(N)=O | > 100 µM (inactive) | > 100 µM (inactive) | > 100 µM (inactive) | 70.1 µM (inactive) |  | 20.1 µM (inactive) | 86.9 µM (inactive) |  | > 100 µM (inactive) |  | 62.7 µM (inactive) | 82.4 µM (inactive) | 48.5 µM (inactive) |  | > 100 µM (inactive) | 62.1 µM (inactive) | > 100 µM (inactive) | 50.1 µM (inactive) | 43.6 µM (inactive) | 28.1 µM (inactive)
5 | O=C(Nc1ccccc1C(=O)O)C(=O)C(C(=O)c1ccccc1-c1ccccc1)C1OC(=O)c2ccccc21 (configuration not stated) | 18 µM (inactive) | 19.3 µM (inactive) | 31.4 µM (inactive) | 23.5 µM (inactive) |  | 23.9 µM (inactive) | 29.7 µM (inactive) |  | 18.7 µM (inactive) |  | 21.8 µM (inactive) | 22.8 µM (inactive) | 16.6 µM (inactive) |  | 16.6 µM (inactive) | 38 µM (inactive) | 13.9 µM (inactive) | 16.6 µM (inactive) | 18 µM (inactive) | 25.1 µM (inactive)
6 | CN(C)CCNC(=O)c1cccc2nc3cc(Cl)ccc3nc12 | 3.79 µM (inactive) | 1.65 µM (inactive) | 2.56 µM (inactive) | 2.68 µM (inactive) |  | 3.32 µM (inactive) | 1.36 µM (inactive) |  | 1.26 µM (inactive) |  | 0.378 µM (active) | 2 µM (inactive) | 2.17 µM (inactive) |  | 3.12 µM (inactive) | 2.47 µM (inactive) | 2.7 µM (inactive) | 3.69 µM (inactive) | 4.26 µM (inactive) | 2.52 µM (inactive)
7 | CC(=O)N(C)C=C1C(=O)N(C)C(=O)N(C)C1=O | > 100 µM (inactive) | > 100 µM (inactive) | > 100 µM (inactive) | > 100 µM (inactive) |  | > 100 µM (inactive) | > 100 µM (inactive) |  | > 100 µM (inactive) |  | > 100 µM (inactive) | > 100 µM (inactive) | > 100 µM (inactive) |  | > 100 µM (inactive) | > 100 µM (inactive) | > 100 µM (inactive) | > 100 µM (inactive) | > 100 µM (inactive) | > 100 µM (inactive)
8 | O=C(O)CNc1c2ccccc2[n+]([O-])c2ccccc12 | > 100 µM (inactive) | > 100 µM (inactive) | > 100 µM (inactive) | 87.3 µM (inactive) |  | 18.7 µM (inactive) | > 100 µM (inactive) |  | 78.7 µM (inactive) |  | 69.3 µM (inactive) | 60.7 µM (inactive) | > 100 µM (inactive) |  |  | > 100 µM (inactive) | > 100 µM (inactive) | 67.8 µM (inactive) | 43.4 µM (inactive) | 76.2 µM (inactive)
9 | Cn1nc(-c2ccccc2)c(C(=O)/C=C/c2ccc(Cl)cc2)c(N2CCOCC2)c1=O | 2.87 µM (inactive) | 4.22 µM (inactive) | 3.89 µM (inactive) | 2.96 µM (inactive) |  | 1.85 µM (inactive) | 1.83 µM (inactive) |  | 3.44 µM (inactive) |  | 0.752 µM (active) | 2.74 µM (inactive) |  |  | 2.5 µM (inactive) |  | 7.94 µM (inactive) | 3.27 µM (inactive) | 9.71 µM (inactive) | 
10 | CN1C(=O)C2C3C=C4c5ccccc5N(c5ccccc5)C4(C2C1=O)[C@H]1C(=O)N(C)C(=O)[C@@H]31 (some centres not stated) | > 100 µM (inactive) | > 100 µM (inactive) | > 100 µM (inactive) | > 100 µM (inactive) |  | > 100 µM (inactive) | > 100 µM (inactive) |  | > 100 µM (inactive) |  | > 100 µM (inactive) | > 100 µM (inactive) | > 100 µM (inactive) |  |  | > 100 µM (inactive) | > 100 µM (inactive) | > 100 µM (inactive) | > 100 µM (inactive) | > 100 µM (inactive)
11 | CCOC(=O)N1C(c2ccccc2)C=CC(c2ccccc2)N1C(=O)OCC (configuration not stated) | > 100 µM (inactive) | > 100 µM (inactive) | > 100 µM (inactive) | > 100 µM (inactive) |  |  | > 100 µM (inactive) |  | > 100 µM (inactive) |  |  | > 100 µM (inactive) | > 100 µM (inactive) |  | > 100 µM (inactive) | > 100 µM (inactive) | > 100 µM (inactive) | > 100 µM (inactive) |  | 42.9 µM (inactive)
12 | CC(C)(C)c1ccnc(/N=C2\N/C(=N\c3cc(C(C)(C)C)ccn3)c3ccccc32)c1 | 19.3 µM (inactive) | 19.9 µM (inactive) | 26.1 µM (inactive) | 21.9 µM (inactive) |  | 36.3 µM (inactive) | 12.4 µM (inactive) |  | 35.9 µM (inactive) |  | 7.14 µM (inactive) | 30.7 µM (inactive) | 17.8 µM (inactive) |  | 67.1 µM (inactive) | 56.9 µM (inactive) | 21.4 µM (inactive) | 50.1 µM (inactive) | 32 µM (inactive) | > 100 µM (inactive)
13 | COc1ccc(C(=O)C(C(=O)C(=O)Nc2nc3ccc(OC)cc3s2)c2ccc(OC)cc2)cc1 (configuration not stated) | > 100 µM (inactive) | > 100 µM (inactive) | > 100 µM (inactive) | > 100 µM (inactive) |  | 75.2 µM (inactive) | > 100 µM (inactive) |  | > 100 µM (inactive) |  | > 100 µM (inactive) | > 100 µM (inactive) | > 100 µM (inactive) |  | > 100 µM (inactive) | > 100 µM (inactive) | > 100 µM (inactive) | > 100 µM (inactive) | 89.5 µM (inactive) | 26.5 µM (inactive)
14 | COc1ccc(OC(C)C(=O)O)c2c(=O)ccccc12 (configuration not stated) | > 100 µM (inactive) | > 100 µM (inactive) | > 100 µM (inactive) | > 100 µM (inactive) |  | > 100 µM (inactive) | > 100 µM (inactive) |  | > 100 µM (inactive) |  | > 100 µM (inactive) | > 100 µM (inactive) | > 100 µM (inactive) |  | > 100 µM (inactive) | > 100 µM (inactive) | > 100 µM (inactive) | > 100 µM (inactive) | > 100 µM (inactive) | > 100 µM (inactive)
15 | c1ccc2cc3[s+]snc3cc2c1 | > 100 µM (inactive) | > 100 µM (inactive) | > 100 µM (inactive) | > 100 µM (inactive) |  | > 100 µM (inactive) | > 100 µM (inactive) |  | > 100 µM (inactive) |  | > 100 µM (inactive) | > 100 µM (inactive) | > 100 µM (inactive) |  | > 100 µM (inactive) | > 100 µM (inactive) | > 100 µM (inactive) | > 100 µM (inactive) | > 100 µM (inactive) | > 100 µM (inactive)
16 | CC(N)Cc1ccc(C(=O)Cl)cc1 (configuration not stated) | > 100 µM (inactive) | > 100 µM (inactive) | > 100 µM (inactive) | > 100 µM (inactive) |  |  | > 100 µM (inactive) |  | > 100 µM (inactive) |  | > 100 µM (inactive) | > 100 µM (inactive) | > 100 µM (inactive) |  | > 100 µM (inactive) | > 100 µM (inactive) | > 100 µM (inactive) | > 100 µM (inactive) |  | > 100 µM (inactive)
